Measured values: ChEMBL document CHEMBL3616477, “In vivo evaluation of isolated triterpenes and semi-synthetic derivatives as antimalarial agents” (2015)

How the values were obtained:
Plasmodium berghei [1] = test: Antimalarial activity against Plasmodium berghei NK65 infected in BALB/c mouse assessed as inhibition of parasitemia at 50 mg/kg, po qd for 4 days measured on 5th day after parasite inoculation by Giemsa staining based microscopy relative to control; assay type: functional; settings: 96 h
Plasmodium berghei [2] = test: Antimalarial activity against Plasmodium berghei NK65 infected in BALB/c mouse assessed as inhibition of parasitemia at 25 mg/kg, po qd for 4 days measured on 5th day after parasite inoculation by Giemsa staining based microscopy relative to control; assay type: functional; settings: 96 h
Plasmodium berghei [3] = test: Antimalarial activity against Plasmodium berghei NK65 infected in BALB/c mouse assessed as inhibition of parasitemia at 25 mg/kg, sc qd for 4 days measured on 5th day after parasite inoculation by Giemsa staining based microscopy relative to control; assay type: functional; settings: 96 h
Plasmodium berghei [4] = test: Antimalarial activity against Plasmodium berghei NK65 infected in BALB/c mouse assessed as inhibition of parasitemia at 50 mg/kg, po qd for 4 days measured on 7th day after parasite inoculation by Giemsa staining based microscopy relative to control; assay type: functional; settings: 96 h
Plasmodium berghei [5] = test: Antimalarial activity against Plasmodium berghei NK65 infected in BALB/c mouse assessed as inhibition of parasitemia at 25 mg/kg, po qd for 4 days measured on 7th day after parasite inoculation by Giemsa staining based microscopy relative to control; assay type: functional; settings: 96 h
Plasmodium berghei [6] = test: Antimalarial activity against Plasmodium berghei NK65 infected in BALB/c mouse assessed as inhibition of parasitemia at 50 mg/kg, sc qd for 4 days measured on 5th day after parasite inoculation by Giemsa staining based microscopy relative to control; assay type: functional; settings: 96 h
Plasmodium berghei [7] = test: Antimalarial activity against Plasmodium berghei NK65 infected in BALB/c mouse assessed as inhibition of parasitemia at 50 mg/kg, sc qd for 4 days measured on 7th day after parasite inoculation by Giemsa staining based microscopy relative to control; assay type: functional; settings: 96 h
Plasmodium berghei [8] = test: Antimalarial activity against Plasmodium berghei NK65 infected in BALB/c mouse assessed as inhibition of parasitemia at 25 mg/kg, sc qd for 4 days measured on 7th day after parasite inoculation by Giemsa staining based microscopy relative to control; assay type: functional; settings: 96 h
Plasmodium berghei [9] = test: Antimalarial activity against Plasmodium berghei NK65 infected in BALB/c mouse assessed as mean survival time at 50 mg/kg, po qd for 4 days (reference value: 22 +/- 3 days); assay type: functional
Plasmodium berghei [10] = test: Antimalarial activity against Plasmodium berghei NK65 infected in BALB/c mouse assessed as mean survival time at 25 mg/kg, po qd for 4 days (reference value: 22 +/- 3 days); assay type: functional
Plasmodium berghei [11] = test: Antimalarial activity against Plasmodium berghei NK65 infected in BALB/c mouse assessed as mean survival time at 50 mg/kg, sc qd for 4 days (reference value: 23 +/- 4 days); assay type: functional
Plasmodium berghei [12] = test: Antimalarial activity against Plasmodium berghei NK65 infected in BALB/c mouse assessed as mean survival time at 25 mg/kg, sc qd for 4 days (reference value: 23 +/- 4 days); assay type: functional
Plasmodium berghei [13] = test: Antimalarial activity against Plasmodium berghei NK65 infected in BALB/c mouse assessed as inhibition of parasitemia at 5 mg/kg, po qd for 4 days measured on 7th day after parasite inoculation by Giemsa staining based microscopy relative to control; assay type: functional; settings: 96 h
Plasmodium berghei [14] = test: Antimalarial activity against Plasmodium berghei NK65 infected in BALB/c mouse assessed as inhibition of parasitemia at 5 mg/kg, sc qd for 4 days measured on 5th day after parasite inoculation by Giemsa staining based microscopy relative to control; assay type: functional; settings: 96 h
Plasmodium berghei [15] = test: Antimalarial activity against Plasmodium berghei NK65 infected in BALB/c mouse assessed as inhibition of parasitemia at 5 mg/kg, sc qd for 4 days measured on 7th day after parasite inoculation by Giemsa staining based microscopy relative to control; assay type: functional; settings: 96 h
Plasmodium berghei [16] = test: Antimalarial activity against Plasmodium berghei NK65 infected in BALB/c mouse assessed as mean survival time at 5 mg/kg, po qd for 4 days (reference value: 22 +/- 3 days); assay type: functional
Plasmodium berghei [17] = test: Antimalarial activity against Plasmodium berghei NK65 infected in BALB/c mouse assessed as mean survival time at 5 mg/kg, sc qd for 4 days (reference value: 23 +/- 4 days); assay type: functional; settings: 96 h
Plasmodium berghei [18] = test: animal or person; settings: NK65, in Mus musculus, po, 96 h, read-out: INH
Description: Antimalarial activity against Plasmodium berghei NK65 infected in BALB/c mouse assessed as inhibition of parasitemia at 5 mg/kg, po qd for 4 days measured on 5th day after parasite inoculation by Giemsa staining based microscopy relative to control

| SMILES | inhibition in vivo at 50 mg/kg (Plasmodium berghei [1]) [%] | inhibition in vivo at 25 mg/kg (Plasmodium berghei [2]) [%] | inhibition in vivo at 25 mg/kg (Plasmodium berghei [3]) [%] | inhibition in vivo at 50 mg/kg (Plasmodium berghei [4]) [%] | inhibition in vivo at 25 mg/kg (Plasmodium berghei [5]) [%] | inhibition in vivo at 50 mg/kg (Plasmodium berghei [6]) [%] | inhibition in vivo at 50 mg/kg (Plasmodium berghei [7]) [%] | inhibition in vivo at 25 mg/kg (Plasmodium berghei [8]) [%] | MST (Plasmodium berghei [9]) [days] | MST (Plasmodium berghei [10]) [days] | MST (Plasmodium berghei [11]) [days] | MST (Plasmodium berghei [12]) [days] | inhibition in vivo at 5 mg/kg (Plasmodium berghei [13]) [%] | inhibition in vivo at 5 mg/kg (Plasmodium berghei [14]) [%] | inhibition in vivo at 5 mg/kg (Plasmodium berghei [15]) [%] | mean survival time at 5 mg/kg (Plasmodium berghei [16]) [days] | mean survival time at 5 mg/kg (Plasmodium berghei [17]) [days] | inhibition in vivo at 5 mg/kg (Plasmodium berghei [18]) [%] |
| --- | --- | --- | --- | --- | --- | --- | --- | --- | --- | --- | --- | --- | --- | --- | --- | --- | --- | --- |
| CO[C@H]1C=C2[C@@H](CC[C@H](OC(C)=O)C2(C)C)[C@]2(C)CC[C@]3(C)[C@@H]([C@H](C)C[C@H](C=C(C)C)OC(C)=O)CC[C@@]3(C)[C@H]12 [KARAVOATE B] | 58.1 | 41.8 | 39.2 | 25.6 | 13.2 | 55.2 | 28.4 | 10.1 | 23 | 21 | 24 | 20 |  |  |  |  |  |  |
| CO[C@H]1C=C2[C@@H](CC[C@H](O)C2(C)C)[C@]2(C)CC[C@]3(C)[C@@H]([C@H](C)C[C@@H](O)C=C(C)C)CC[C@@]3(C)[C@H]12 [KARAVELAGENIN C] | 33.1 | 22.7 | 21.3 | 3.4 | 0 | 18.6 | 1 | 0 | 22 | 21 | 22 | 23 |  |  |  |  |  |  |
| CCN(CC)CCCC(C)Nc1ccnc2cc(Cl)ccc12 (centres undefined) [CHLOROQUINE] |  |  |  |  |  |  |  |  |  |  |  |  | 98 | 99 | 99 | > 40 | > 40 | 100 |
| CCC(=O)O[C@H]1CC[C@@H]2C(=C[C@H](OC)[C@@H]3[C@@]2(C)CC[C@]2(C)[C@@H]([C@H](C)C[C@H](C=C(C)C)OC(=O)CC)CC[C@@]32C)C1(C)C [KARAVOATE D] | 45.5 | 12.3 | 11.9 | 11.5 | 0 | 42.5 | 10.5 | 0 | 24 | 23 | 24 | 22 |  |  |  |  |  |  |
| CC(C)=C[C@H](O)C[C@@H](C)[C@H]1CC[C@@]2(C)[C@@H]3[C@@H](O[C@@H]4O[C@H](CO)[C@@H](O)[C@@H](O)[C@H]4O)C=C4[C@@H](CC[C@H](O)C4(C)C)[C@]3(C)CC[C@]12C [BALSAMINOSIDE B] | 36.2 | 23.9 | 12.5 | 8.6 | 0 | 37.1 | 5.5 | 0 | 23 | 21 | 21 | 20 |  |  |  |  |  |  |
